This is an account of results in patent US20010020029A1, “New multidose vial formulations for administering endo-N-(9-methyl-9-azabicyclo[3.3.1]non-3-yl)-1-methyl-1H- indazole-3-carboxamide hydrochloride” (SmithKline Beecham p.l.c., priority 1998, published 2001).

Marks after values point to notes of the source that are not given here.

Data set [1] has as its system gram-positive and gram-negative bacteria, yeasts and molds. To be noted: cited from earlier work; for efficacy against gram-positive and gram-negative bacteria, yeasts and molds: over the pH range 5-7.
In data set [2] the test system is bacteria, yeasts and molds. Nature of the data set: USP test for preservative efficacy (overall). To be noted: 1% w/w, full vials, at the time of manufacture. Format: cell-based. The protocol:
The target pH of the multidose vial is 6 and limits of 5 to 7. […] Efficacy of the preservative was therefore assessed over the lower pH range 4 to 6. Vials prepared at pH4, 5 and 6 were tested for preservative efficacy according to the USP XXII 1990—“Antimicrobial Preservative Effectiveness.”
For bacteria, the acceptance criteria require that the number of organisms per mL is reduced by a factor of not less than 10^3 in 14 days and there is no increase thereafter. All three batches met these criteria for P aeruginosa, S. aureus and E. coli.
All three batches met this criterion for C. albicans and A. niger.
In summary, vials prepared at pH4, 5 and 6 all pass the USP test for preservative efficacy.

Data set [3] in a line: Stability of preservative systems to autoclave (placebo solutions, pH6, 121° C.). It is filed as physicochemical. To be noted: for Content after 15 mins (% of initial): autoclaved 15 minutes at 121° C.; for Content after 15 mins (% of initial) / Contents after 60 mins (% of initial): pH6; for Contents after 60 mins (% of initial): autoclaved 60 minutes at 121° C.; for Initial content: placebo solution pH6, before autoclaving; for stability to autoclaving (in words): up to 60 minutes at 121° C.; for Area percent for the unknown peak at 15 mins / Content at 15 mins (percentage of total peak area): autoclaved 15 mins; for Area percent for the unknown peak at 60 mins / Content at 60 mins (percentage of total peak area): autoclaved 60 mins; for Area percent for the unknown peak, initial / Initial content (percentage of total peak area): before autoclaving; for Content at 15 mins (percentage of total peak area) / Content at 60 mins (percentage of total peak area) / Initial content (percentage of total peak area): single paraben system, area normalisation. The method, then:
The five preservative systems were assessed for stability to the autoclave process. Placebo solutions were prepared at pH6, filled into 2 ml glass vials and autoclaved for 15 and 60 minutes at 121° C. A cycle time of 60 minutes was selected to mimic the most extreme conditions to which a vial on the outside of a full autoclave load could be subjected to. Solutions were prepared at pH6 since this was the target pH of the multidose dose formulation. The early experiments were performed using 2 ml flint glass vials and West #1816 Teflon faced, bromobutyl rubber stopper.
External standards of the parabens could not be prepared due to their poor aqueous solubility. The results were therefore determined by are normalization, whereby peak areas are expressed as a percentage of the total peak area of the chromatograph.
NOTE: The results are expressed as percentage of total peak area determined by area normalisation.
Area percent for the unknown peak

Data set [4] in a line: Stability of meta-cresol formulation to autoclaving. It is filed as physicochemical. The note with it: autoclave cycle. The method, then: To investigate this phenomenon further, the stability during autoclaving experiment was repeated on samples of the meta-cresol formulation. The degradation product content increased from 0.05% before autoclaving to 0.53% at 15 minutes then 0.93% at 60 minutes. […] Meta-cresol was therefore rejected as a possible preservative.

Turning to `OCc1ccccc1` [Benzyl Alcohol, Benzyl alcohol], the “efficacy as a function of pH” value in data set [1] (literature) is recorded as “decreases with increasing pH above pH5”. Moreover, the “efficacy against gram-positive and gram-negative bacteria, yeasts and molds” value in data set [1] was “moderate efficacy”. The antimicrobial preservative efficacy result in data set [2] was “efficacious”. In addition, in data set [3], the “Content after 15 mins (% of initial)” value is reported as 100 % of initial, the “Contents after 60 mins (% of initial)” value is given as 100 % of initial, the Initial content amounted to 10.0 mg/mL and the “stability to autoclaving (in words)” value is listed as “good stability with no change in preservative content”.

For the compound `Cc1cccc(O)c1` [Meta-Cresol, Meta-cresol], the “efficacy against gram-positive and gram-negative bacteria, yeasts and molds” value in data set [1] is “good efficacy”. The “compatibility with granisetron hydrochloride” value in data set [4] was “incompatible”. In data set [3], the “Content after 15 mins (% of initial)” value was 100 % of initial, the “Contents after 60 mins (% of initial)” value was 100 % of initial, the Initial content is listed as 2.6 mg/mL and the “stability to autoclaving (in words)” value is “good stability with no change in preservative content”.

`COC(=O)c1ccc(O)cc1` [Methyl-Parabens, Methyl paraben]: in data set [3], the “Area percent for the unknown peak at 15 mins” value is “(3.7%)*”; the “Area percent for the unknown peak at 60 mins” value was “(6.5%)*”; the “Area percent for the unknown peak, initial” value is “(0.2%)*”; the “Content at 15 mins (percentage of total peak area)” value is on record as 96.3%. In addition, in data set [3], the “Content at 60 mins (percentage of total peak area)” value is recorded as 93.5% and the “Initial content (percentage of total peak area)” value came out at 99.8%.

Take `CCCOC(=O)c1ccc(O)cc1` [Propyl Parabens, Propyl paraben]: in data set [3], the “Area percent for the unknown peak at 15 mins” value is listed as 1.6%; the “Area percent for the unknown peak at 60 mins” value came to 2.7%; the “Area percent for the unknown peak, initial” value worked out at 0.6%; the “Content at 15 mins (percentage of total peak area)” value amounted to 98.4%. In data set [3], the “Content at 60 mins (percentage of total peak area)” value is listed as 97.2% and the “Initial content (percentage of total peak area)” value is 99.4%.
